# Measured values reported in ChEMBL document CHEMBL1201862, “PubChem BioAssay data set” (2004).
# The source made the active and inactive calls.
# What was measured:
# [1] = target: T1, E3 ubiquitin-protein ligase XIAP (Homo sapiens, UniProt P98170); experiment: Counter Screen using XIAP-Bir3 for Chemical Antagonists of Bir1/2 domains of IAP-family anti-apoptotic proteins. [Related pubchem assays (depositor defined):AID1018, AID1449, AID1514, AID1638, AID1749, AID1750, AID488957, AID488963]
# [2] = target: T1, E3 ubiquitin-protein ligase XIAP; experiment: XIAP antagonists, biochemical, IAP family, fluorescence polarization (AID 1018); type: functional
# [3] = target: T2, Tyrosine-protein phosphatase non-receptor type 7 (Homo sapiens, UniProt P35236); type: functional
# T2 sequence (P35236 whole entry): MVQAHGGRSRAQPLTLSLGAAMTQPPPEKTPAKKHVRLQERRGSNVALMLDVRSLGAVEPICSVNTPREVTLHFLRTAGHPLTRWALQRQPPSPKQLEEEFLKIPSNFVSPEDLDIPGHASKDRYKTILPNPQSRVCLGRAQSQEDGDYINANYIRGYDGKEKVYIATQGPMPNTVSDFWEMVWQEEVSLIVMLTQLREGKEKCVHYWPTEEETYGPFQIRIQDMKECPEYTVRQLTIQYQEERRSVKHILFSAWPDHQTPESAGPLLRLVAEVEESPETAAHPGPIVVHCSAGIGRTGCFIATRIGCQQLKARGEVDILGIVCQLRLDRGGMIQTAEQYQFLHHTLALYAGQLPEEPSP
# [4] = target: T3, Tyrosine-protein phosphatase non-receptor type 22 (Homo sapiens, UniProt Q9Y2R2); type: functional
# T3 sequence (Q9Y2R2 whole entry): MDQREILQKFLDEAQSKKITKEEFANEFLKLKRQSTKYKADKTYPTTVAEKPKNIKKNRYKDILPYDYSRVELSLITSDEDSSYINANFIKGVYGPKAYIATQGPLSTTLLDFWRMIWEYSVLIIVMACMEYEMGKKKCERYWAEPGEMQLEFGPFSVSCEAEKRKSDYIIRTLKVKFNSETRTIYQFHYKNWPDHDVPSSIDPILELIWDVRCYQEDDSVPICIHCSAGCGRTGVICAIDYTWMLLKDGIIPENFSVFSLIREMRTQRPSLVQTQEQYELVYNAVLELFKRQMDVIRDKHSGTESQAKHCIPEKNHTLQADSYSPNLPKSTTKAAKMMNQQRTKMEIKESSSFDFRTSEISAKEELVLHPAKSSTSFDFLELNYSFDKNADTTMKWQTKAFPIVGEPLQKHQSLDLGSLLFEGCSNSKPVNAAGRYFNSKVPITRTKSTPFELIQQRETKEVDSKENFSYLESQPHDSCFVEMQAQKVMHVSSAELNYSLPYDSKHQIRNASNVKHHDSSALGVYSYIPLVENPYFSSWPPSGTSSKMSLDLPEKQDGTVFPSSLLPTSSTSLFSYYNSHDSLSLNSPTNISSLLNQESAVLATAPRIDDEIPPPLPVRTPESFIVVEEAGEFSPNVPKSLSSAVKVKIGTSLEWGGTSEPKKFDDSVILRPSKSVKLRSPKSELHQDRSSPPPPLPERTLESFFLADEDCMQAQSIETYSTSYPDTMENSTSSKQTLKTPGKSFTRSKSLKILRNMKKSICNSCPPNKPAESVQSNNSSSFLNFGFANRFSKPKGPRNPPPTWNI
# [5] = target: T3, Tyrosine-protein phosphatase non-receptor type 22; type: functional; remark: listed apart in the source
# [6] = THP-1 cell cytotoxicity, dose response, cytotoxicity control for non-replicating M. tuberculosis project (AID 489025); type: functional
# [7] = cytotoxicity in HPDE-C7 cells, cell-based, fluorescence, HTS (AID 430); type: functional; conditions: Homo sapiens
# [8] = cytotoxicity in KRAS-transformed pancreatic duct cells, primary screen, cell-based, fluorescence, HTS (AID 431); type: functional; conditions: Homo sapiens;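 also: cell line used: HPDE-C7K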
# [9] = Vero E6 cell cytotoxicity, dose response, cytotoxicity control for non-replicating M. tuberculosis project, secondary assay (AID 492998); type: functional, VeroE6; conditions: Vero C1008
# cells = type: functional
# [10] = target: T4, Short transient receptor potential channel 4 (Mus musculus, UniProt Q9QUQ5); experiment: mouse TRPC4 channel activators, dose response, cell-based, HEK293 TRPC4/mu-opioid, Fluo-4 calcium (AID 434937); type: functional
# T4 sequence (Q9QUQ5 whole entry): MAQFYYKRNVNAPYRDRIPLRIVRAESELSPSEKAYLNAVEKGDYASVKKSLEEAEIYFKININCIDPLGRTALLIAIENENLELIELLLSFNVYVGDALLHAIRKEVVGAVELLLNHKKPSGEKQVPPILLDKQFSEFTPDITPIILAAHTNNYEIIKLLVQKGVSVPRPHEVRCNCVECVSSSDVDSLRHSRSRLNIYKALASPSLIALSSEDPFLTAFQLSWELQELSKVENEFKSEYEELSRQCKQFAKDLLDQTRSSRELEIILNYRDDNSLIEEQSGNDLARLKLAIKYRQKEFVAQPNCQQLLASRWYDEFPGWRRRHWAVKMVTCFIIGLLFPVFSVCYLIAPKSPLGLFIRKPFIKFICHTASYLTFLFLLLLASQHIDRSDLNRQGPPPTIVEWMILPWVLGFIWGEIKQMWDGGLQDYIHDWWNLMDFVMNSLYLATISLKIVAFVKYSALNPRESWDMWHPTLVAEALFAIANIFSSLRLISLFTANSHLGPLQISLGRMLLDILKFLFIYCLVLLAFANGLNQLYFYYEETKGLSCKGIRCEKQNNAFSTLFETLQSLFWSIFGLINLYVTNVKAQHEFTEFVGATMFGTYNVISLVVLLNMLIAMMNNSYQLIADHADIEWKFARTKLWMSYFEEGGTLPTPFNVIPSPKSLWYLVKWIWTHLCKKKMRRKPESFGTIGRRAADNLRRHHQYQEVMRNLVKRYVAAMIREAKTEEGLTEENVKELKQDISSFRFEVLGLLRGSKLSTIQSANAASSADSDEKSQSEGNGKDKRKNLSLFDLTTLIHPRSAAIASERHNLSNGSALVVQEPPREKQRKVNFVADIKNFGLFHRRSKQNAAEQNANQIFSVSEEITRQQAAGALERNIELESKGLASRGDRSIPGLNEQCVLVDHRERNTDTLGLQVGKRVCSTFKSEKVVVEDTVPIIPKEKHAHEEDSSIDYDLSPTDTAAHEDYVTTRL
# INS1 = experiment: beta cell apoptosis inhibitors, cytokine rescue, dose response, luminescence, retest (AID 449756); type: functional, cell-based; conditions: Rattus norvegicus;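 also: cell death triggered by IL-1 beta plus TNF-alpha plus IFN-gamma mixture; protective hits raise ATP signal compared with cytokine alone wells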
# [11] = control 3'UTR Renilla luciferase suppression, dose response, counter-screen for Shn3 inhibitor project, cell-based, Clone20-Shn3RL, cherry-picked (AID 624133); type: functional
# [12] = target: G-protein coupled receptor 55 (Homo sapiens, UniProt Q9Y2T6); experiment: GPR55 agonists via beta-arrestin recruitment, primary screen, imaging, U2OS cells, beta-arrestin-GFP redistribution (AID 1961); type: functional
# [13] = Shn3 3'UTR reporter inhibitors, dose response, cell-based, Clone20 osteoblasts, firefly luciferase, cherry-picked (AID 624132); type: functional;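 also: firefly luciferase luminescence from reporter carrying the Shn3 3'UTR in osteoblasts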
# Protein RecA = target: T5, Protein RecA (Mycobacterium tuberculosis, UniProt P9WHJ3); experiment: Fluorescence Cell-Free Homogeneous Dose Retest to Identify Inhibitors of RecA-Intein Splicing Activity. [Related pubchem assays (depositor defined):AID2097, AID2223, AID489010, AID492950]; type: functional
# T5 sequence (P9WHJ3 whole entry): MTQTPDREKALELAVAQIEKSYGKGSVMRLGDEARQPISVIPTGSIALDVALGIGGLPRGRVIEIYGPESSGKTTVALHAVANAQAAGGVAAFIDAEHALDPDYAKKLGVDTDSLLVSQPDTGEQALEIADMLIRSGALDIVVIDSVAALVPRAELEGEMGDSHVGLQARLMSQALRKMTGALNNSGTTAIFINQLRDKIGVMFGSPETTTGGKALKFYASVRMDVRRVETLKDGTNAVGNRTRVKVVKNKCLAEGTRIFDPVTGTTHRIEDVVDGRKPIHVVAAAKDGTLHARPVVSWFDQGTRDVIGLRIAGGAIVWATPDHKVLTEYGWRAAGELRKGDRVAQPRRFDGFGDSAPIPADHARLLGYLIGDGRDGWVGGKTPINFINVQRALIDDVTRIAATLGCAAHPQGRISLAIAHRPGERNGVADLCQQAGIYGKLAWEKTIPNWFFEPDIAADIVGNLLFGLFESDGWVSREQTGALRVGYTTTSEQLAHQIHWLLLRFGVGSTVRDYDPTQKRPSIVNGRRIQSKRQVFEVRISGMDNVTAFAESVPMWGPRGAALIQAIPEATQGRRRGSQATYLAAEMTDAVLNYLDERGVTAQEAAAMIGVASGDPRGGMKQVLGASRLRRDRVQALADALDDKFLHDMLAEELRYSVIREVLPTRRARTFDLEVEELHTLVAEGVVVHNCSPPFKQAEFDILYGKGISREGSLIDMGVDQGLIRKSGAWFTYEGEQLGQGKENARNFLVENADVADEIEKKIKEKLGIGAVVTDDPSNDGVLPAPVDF
# [14] = Fluorescence-based cell-based high throughput dose response assay for inhibitors of the interaction of nucleotide-binding oligomerization domain containing 2 (NOD2) and the receptor-interacting serine-threonine kinase 2 (RIPK2).; type: functional; conditions: Homo sapiens
# [15] = inhibitors of PGC1a acetylation in cells, dose response, cell-based, cherry-picked samples (AID 720514); type: functional;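 also: potency may reflect raised or lowered acetylation signal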
# [16] = HepG2 cell cytotoxicity, dose response, cytotoxicity control for Shn3 inhibitor project, CellTiter-Glo, cherry-picked (AID 624134); type: functional, cell-based
# [17] = growth suppression of beta-catenin-knockout colon cells, dose response, cell-based, HCT116, human colon tumor (AID 1045); type: functional;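 also: HCT116 colon tumor cells with beta catenin knocked out; cells exposed to compound for 60 hours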
# [18] = growth suppression of PTEN-null colon cells, dose response, cell-based, HCT116 PTEN knockout (AID 1047); type: functional;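 also: HCT116 colon tumor cells with PTEN knocked out; cells exposed to compound for 60 hours before readout; potency for loss of cell viability measured by luminescence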
# [19] = target: T6, Replicative DNA helicase DnaB (Mycobacterium tuberculosis, UniProt P9WMR3); experiment: DnaB intein splicing inhibitors, dose response, biochemical, cell-free fluorescence (AID 449749); type: functional
# T6 sequence (P9WMR3 whole entry): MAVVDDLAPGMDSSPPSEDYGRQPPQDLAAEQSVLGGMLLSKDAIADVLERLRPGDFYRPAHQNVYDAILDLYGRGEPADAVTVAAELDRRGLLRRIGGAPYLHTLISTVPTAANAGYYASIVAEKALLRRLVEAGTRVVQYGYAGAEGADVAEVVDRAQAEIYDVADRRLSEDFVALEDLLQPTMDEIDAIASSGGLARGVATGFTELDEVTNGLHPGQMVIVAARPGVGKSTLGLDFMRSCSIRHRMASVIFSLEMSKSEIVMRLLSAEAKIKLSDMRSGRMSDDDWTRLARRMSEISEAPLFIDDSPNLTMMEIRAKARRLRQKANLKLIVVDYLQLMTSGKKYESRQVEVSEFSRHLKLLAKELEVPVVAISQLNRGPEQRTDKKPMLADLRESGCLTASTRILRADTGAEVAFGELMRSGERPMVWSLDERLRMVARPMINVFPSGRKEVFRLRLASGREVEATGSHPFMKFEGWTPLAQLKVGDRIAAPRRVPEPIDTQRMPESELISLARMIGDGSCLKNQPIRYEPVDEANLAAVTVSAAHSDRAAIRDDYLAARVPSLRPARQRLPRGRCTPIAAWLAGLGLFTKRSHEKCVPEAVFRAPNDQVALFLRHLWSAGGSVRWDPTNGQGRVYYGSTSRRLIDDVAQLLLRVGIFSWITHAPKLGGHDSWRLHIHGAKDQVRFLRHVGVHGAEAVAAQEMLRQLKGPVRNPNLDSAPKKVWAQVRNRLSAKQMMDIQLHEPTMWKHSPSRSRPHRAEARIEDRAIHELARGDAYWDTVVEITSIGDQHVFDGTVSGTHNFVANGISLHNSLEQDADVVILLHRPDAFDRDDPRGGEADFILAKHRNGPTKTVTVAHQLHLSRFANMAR
# T1 sequence (P98170 whole entry): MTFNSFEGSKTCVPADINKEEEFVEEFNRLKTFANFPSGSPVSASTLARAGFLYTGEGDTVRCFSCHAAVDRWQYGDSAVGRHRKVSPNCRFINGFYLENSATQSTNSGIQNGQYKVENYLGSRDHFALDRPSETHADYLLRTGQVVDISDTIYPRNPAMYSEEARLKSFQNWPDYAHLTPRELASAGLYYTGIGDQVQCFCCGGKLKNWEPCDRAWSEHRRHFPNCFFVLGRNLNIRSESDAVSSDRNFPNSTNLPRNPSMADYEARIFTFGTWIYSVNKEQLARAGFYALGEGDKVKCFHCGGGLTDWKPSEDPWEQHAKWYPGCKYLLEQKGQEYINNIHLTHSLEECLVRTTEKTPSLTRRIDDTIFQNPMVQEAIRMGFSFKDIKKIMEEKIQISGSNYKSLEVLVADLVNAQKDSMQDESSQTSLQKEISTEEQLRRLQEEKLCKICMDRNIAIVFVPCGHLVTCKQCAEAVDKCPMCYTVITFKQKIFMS
# G-protein coupled receptor 55, sequence (Q9Y2T6 whole entry): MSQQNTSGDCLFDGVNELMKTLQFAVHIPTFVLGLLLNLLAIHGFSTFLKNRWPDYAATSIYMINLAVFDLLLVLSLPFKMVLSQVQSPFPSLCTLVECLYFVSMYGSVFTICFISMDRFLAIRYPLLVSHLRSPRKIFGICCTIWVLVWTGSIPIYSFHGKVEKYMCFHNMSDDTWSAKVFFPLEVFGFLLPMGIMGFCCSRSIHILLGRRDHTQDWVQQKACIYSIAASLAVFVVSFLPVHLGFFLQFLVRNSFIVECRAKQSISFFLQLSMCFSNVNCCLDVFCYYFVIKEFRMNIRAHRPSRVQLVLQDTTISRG
smiles,measurement,setting,value
CCOc1ccc(C(=O)Nc2cccc(NC(=O)c3cccs3)c2)cc1[N+](=O)[O-],IC50,[1],> 100 µM (inactive)
same,IC50,[2],> 100 µM (not active)
Cn1c(SCC(=O)N2CCN(c3ccccc3)CC2)nnc1-c1cc2ccccc2o1,IC50,[3],> 79.4 µM (inactive)
same,IC50,[4],> 79.4 µM (inactive)
same,IC50,[5],> 79.4 µM (inactive)
CN(C)C=C1C(=O)N(C2CCCCC2)C(=O)N(C2CCCCC2)C1=O,CC50,[6],> 40 µM (active)
same,EC50,[7],9.27 µM (active)
same,EC50,[8],13.7 µM (active)
same,CC50,[9],> 20 µM (active)
same,IC50,cells,11.2 µM (active)
same,EC50,[10],9.44 µM (active)
COC(=O)C1=C(C(=O)OC)N2C=CC=CC2(C)C(C(=O)OC)=C1C(=O)OC (configuration not stated),IC50,[1],> 100 µM (inactive)
same,IC50,[2],> 100 µM (not active)
CC(C)(C)NC(=O)C(c1ccncc1)N(C(=O)Cn1nnc(-c2ccc(F)cc2)n1)c1ccccc1F (configuration not stated),IC50,[1],> 100 µM (inactive)
same,IC50,[2],> 100 µM (not active)
CCn1cc(CNC(=O)c2cc([N+](=O)[O-])c(C)c([N+](=O)[O-])c2)cn1,IC50,[3],> 79.4 µM (inactive)
same,IC50,[4],> 79.4 µM (inactive)
same,IC50,[5],> 79.4 µM (inactive)
Brc1ccc(C2Nc3cccc4cccc(c34)N2)o1,IC50,[3],> 79.4 µM (inactive)
same,IC50,[4],> 79.4 µM (inactive)
same,IC50,[5],> 79.4 µM (inactive)
O=C(NCc1cccnc1)/C(=C/c1ccc(-c2ccc(Cl)cc2)o1)S(=O)(=O)c1ccccc1,AC50,INS1,6.51 µM (active)
same,AC50,[11],11.8 µM (active)
same,EC50,[12],> 32 µM (inactive)
same,AC50,[13],5.35 µM (active)
same,EC50,Protein RecA,27.3 µM (active)
same,IC50,[14],6.4 µM (active)
same,AC50,[15],6.04 µM (active)
same,AC50,[16],11.9 µM (active)
same,EC50,[17],4.08 µM (active)
same,EC50,[18],4.4 µM (active)
same,AC50,[19],> 380 µM (inactive)
